≈ marks a conversion by molar mass, not a printed value. Calls of active or inactive are those of the source. No cut-off for these calls is given here.
Assays:
Acinetobacter baumannii = assay: Antibacterial activity against Acinetobacter baumannii ATCC 19606 incubated for 16 to 18 hrs by CLSI based broth dilution method; format: functional; conditions: time 16-18 hrs
[1] = Stability in mouse plasma assessed as parent compound remaining at 1 ug/ml measured after 45 mins by LC-MS/MS analysis; format: ADME, cell-free; conditions: at 1 µg/mL, read-out: Stability
Staphylococcus aureus [2] = assay: Antibacterial activity against methicillin-resistant Staphylococcus aureus ATCC 43300 assessed as inhibition of bacterial growth at upto 8 times MIC measured upto 28 hrs by time kill curve assay; format: functional, organism-based
[3] = Stability in mouse plasma assessed as parent compound remaining at 1 ug/ml measured after 120 mins by LC-MS/MS analysis; format: ADME, cell-free; conditions: at 1 µg/mL, read-out: Stability
[4] = Toxicity in ip dosed ICR mouse assessed as animal death at high dose measured upto 8 days; format: organism-based; conditions: in vivo, 192 h, time < 8 day
[5] = Stability in mouse plasma assessed as parent compound remaining at 5 ug/ml measured after 120 mins by LC-MS/MS analysis; format: ADME, cell-free; conditions: at 5 µg/mL, read-out: Stability
[6] = Metabolic stability in mouse liver microsomes assessed as hepatic clearance at 1 uM measured upto 60 mins in presence of NADPH by LC-MS/MS analysis; format: ADME, Microsome; conditions: 1 h
Escherichia coli [7] = assay: Antibacterial activity against Escherichia coli ATCC 25922 incubated for 16 to 18 hrs in presence of human plasma by CLSI based broth dilution method; format: functional; conditions: time 16-18 hrs
[8] = system: Staphylococcus epidermidis; assay: Antibacterial activity against Staphylococcus epidermidis ATCC 12228 incubated for 16 to 18 hrs by CLSI based broth dilution method; format: functional; conditions: time 16-18 hrs
[9] = Metabolic stability in mouse liver microsomes assessed as intrinsic clearance at 1 uM measured upto 60 mins in presence of NADPH by LC-MS/MS analysis; format: ADME, Microsome; conditions: read-out: CLH
[10] = Stability in mouse plasma assessed as parent compound remaining at 5 ug/ml measured after 30 mins by LC-MS/MS analysis; format: ADME, cell-free; conditions: at 5 µg/mL, read-out: Stability
MCF7 = assay: Cytotoxicity against human MCF7 cells measured after 72 hrs by MTT assay; format: functional, cell-based; conditions: MCF7, 72 h
[11] = Metabolic stability in mouse liver microsomes assessed as half life at 1 uM measured upto 60 mins in presence of NADPH by LC-MS/MS analysis; format: ADME, Microsome
Escherichia coli [12] = assay: Antibacterial activity against Escherichia coli ATCC 25922 incubated for 16 to 18 hrs in absence of human plasma by CLSI based broth dilution method; format: functional; conditions: time 16-18 hrs
Enterococcus faecalis = assay: Antibacterial activity against Enterococcus faecalis ATCC 29212 incubated for 16 to 18 hrs by CLSI based broth dilution method; format: functional; conditions: time 16-18 hrs
[13] = Toxicity in ICR mouse assessed as median lethal dose administered as single IP dose measured upto 8 days; conditions: in vivo, time < 8 day
[14] = Stability in mouse plasma assessed as parent compound remaining at 5 ug/ml measured after 45 mins by LC-MS/MS analysis; format: ADME, cell-free; conditions: at 5 µg/mL, read-out: Stability
Staphylococcus aureus [15] = assay: Antibacterial activity against Staphylococcus aureus ATCC 29213 incubated for 16 to 18 hrs by CLSI based broth dilution method; format: functional; conditions: time 16-18 hrs
[16] = AUC (0 to infinity) in ICR mouse at 10 mg/kg, ip measured after 5 to 24 hrs post administration by LC-MS/MS analysis; format: ADME, organism-based; design: time upper 24 hrs, dose 10 mg/kg, time lower 5 hrs, route ip; conditions: in vivo
[17] = Stability in mouse plasma assessed as parent compound remaining at 5 ug/ml measured after 240 mins by LC-MS/MS analysis; format: ADME, cell-free; conditions: at 5 µg/mL, read-out: Stability
HGC-27 = assay: Cytotoxicity against human HGC-27 cells measured after 72 hrs by MTT assay; format: functional, cell-based; conditions: HGC-27, 72 h
[18] = Stability in mouse plasma assessed as parent compound remaining at 1 ug/ml measured after 20 mins by LC-MS/MS analysis; format: ADME, cell-free; conditions: at 1 µg/mL, read-out: Stability
Staphylococcus aureus [19] = assay: Antibacterial activity against methicillin-resistant Staphylococcus aureus ATCC 43300 incubated for 16 to 18 hrs in presence of human plasma by CLSI based broth dilution method; format: functional; conditions: time 16-18 hrs
[20] = Stability in mouse plasma assessed as parent compound remaining at 1 ug/ml measured after 10 mins by LC-MS/MS analysis; format: ADME, cell-free; conditions: at 1 µg/mL, read-out: Stability
Staphylococcus aureus [21] = assay: Drug resistance against methicillin-resistant Staphylococcus aureus ATCC 43300 assessed as increase in MIC measured after 10 passaging for 24 hrs; format: functional, organism-based
Staphylococcus aureus [22] = assay: Antibacterial activity against Methicillin-resistant Staphylococcus aureus ATCC 43300 infected in ICR mouse thigh infection model assessed as survival rate at 7.5 mg/kg, ip measured after 24 hrs post-treatment relative to control; format: functional
[23] = Stability in mouse plasma assessed as parent compound remaining at 1 ug/ml measured after 30 mins by LC-MS/MS analysis; format: ADME, cell-free; conditions: at 1 µg/mL, read-out: Stability
Staphylococcus aureus [24] = assay: Antibacterial activity against Methicillin-resistant Staphylococcus aureus ATCC 43300 infected in ip dosed ICR mouse thigh infection model assessed as reduction in bacterial growth measured after 24 hrs post-treatment; format: functional, organism-based; conditions: dose lower 7.5 mg/kg, dose upper […]
[25] = AUC (0 to t) in ICR mouse at 10 mg/kg, ip measured after 5 to 24 hrs post administration by LC-MS/MS analysis; format: ADME, organism-based; design: time 5-24 hrs, dose 10 mg/kg, route ip; conditions: in vivo
[26] = Stability in mouse plasma assessed as parent compound remaining at 5 ug/ml measured after 1440 mins by LC-MS/MS analysis; format: ADME, cell-free; conditions: at 5 µg/mL, read-out: Stability
HCT-116 = assay: Cytotoxicity against human HCT-116 cells measured after 72 hrs by MTT assay; format: functional, cell-based; conditions: HCT-116, 72 h
Staphylococcus aureus [27] = assay: Antibacterial activity against Methicillin-resistant Staphylococcus aureus ATCC 43300 infected in ICR mouse thigh infection model assessed as survival rate at 15 mg/kg, ip measured after 24 hrs post-treatment relative to control; format: functional
Staphylococcus aureus [28] = assay: Antibacterial activity against Staphylococcus aureus ATCC 29213 incubated for 16 to 18 hrs in absence of human plasma by CLSI based broth dilution method; format: functional; conditions: time 16-18 hrs
Escherichia coli [29] = assay: Antibacterial activity against Escherichia coli ATCC 25922 assessed as inhibition of bacterial growth at upto 8 times MIC measured upto 28 hrs by time kill curve assay; format: functional, organism-based
HepG2 = assay: Cytotoxicity against human HepG2 cells measured after 72 hrs by MTT assay; format: functional, cell-based; conditions: HepG2, 72 h
[30] = Stability in mouse plasma assessed as parent compound remaining at 5 ug/ml measured after 10 mins by LC-MS/MS analysis; format: ADME, cell-free; conditions: at 5 µg/mL, read-out: Stability
[31] = Stability in mouse plasma assessed as parent compound remaining at 1 ug/ml measured after 60 mins by LC-MS/MS analysis; format: ADME, cell-free; conditions: at 1 µg/mL, read-out: Stability
Staphylococcus aureus [32] = assay: Antibacterial activity against methicillin-resistant Staphylococcus aureus ATCC 43300 incubated for 16 to 18 hrs in absence of human plasma by CLSI based broth dilution method; format: functional; conditions: time 16-18 hrs
[33] = Stability in mouse plasma assessed as parent compound remaining at 1 ug/ml measured after 1440 mins by LC-MS/MS analysis; format: ADME, cell-free; conditions: at 1 µg/mL, read-out: Stability
[34] = Stability in mouse plasma assessed as parent compound remaining at 5 ug/ml measured after 60 mins by LC-MS/MS analysis; format: ADME, cell-free; conditions: at 5 µg/mL, read-out: Stability
[35] = Half life in ICR mouse at 10 mg/kg, ip measured after 5 to 24 hrs post administration by LC-MS/MS analysis; format: ADME, organism-based; conditions: in vivo, time 5-24 hrs
Staphylococcus aureus [36] = assay: Antibacterial activity against Staphylococcus aureus ATCC 29213 incubated for 16 to 18 hrs in presence of human plasma by CLSI based broth dilution method; format: functional; conditions: time 16-18 hrs
[37] = Stability in mouse plasma assessed as parent compound remaining at 1 ug/ml measured after 240 mins by LC-MS/MS analysis; format: ADME, cell-free; conditions: at 1 µg/mL, read-out: Stability
Staphylococcus aureus [38] = assay: Antibacterial activity against methicillin-resistant Staphylococcus aureus ATCC 43300 incubated for 16 to 18 hrs by CLSI based broth dilution method; format: functional; conditions: time 16-18 hrs
Escherichia coli [39] = assay: Antibacterial activity against Escherichia coli ATCC 25922 incubated for 16 to 18 hrs by CLSI based broth dilution method; format: functional; conditions: time 16-18 hrs
[40] = Stability in mouse plasma assessed as parent compound remaining at 5 ug/ml measured after 20 mins by LC-MS/MS analysis; format: ADME, cell-free; conditions: at 5 µg/mL, read-out: Stability

SMILES: Nc1nc(N)c2c(ccc3c2ccn3Cc2ccc3scnc3c2)n1
- MIC (Acinetobacter baumannii): 1 mg/L (≈ 2.89 µM)
- remaining at 0.75 h, 1 ug/ml [1]: 93.1%
- Activity (Staphylococcus aureus [2]): Active
- remaining at 2 h, 1 ug/ml [3]: 92.5%
- Activity [4]: Toxic
- remaining at 2 h, 5 ug/ml [5]: 95.5%
- CLH [6]: 4.49 L/h/kg
- MIC (Escherichia coli [7]): 0.125 mg/L
- MIC [8]: ≤ 0.004 mg/L
- microsomal CLint at 1 µM [9]: 114 µL/min/mg
- remaining at 0.5 h, 5 ug/ml [10]: 95.8%
- IC50 (MCF7): 0.58 µM
- half-life at 1 µM [11]: 0.203 h
- MIC (Escherichia coli [12]): 0.06 mg/L (≈ 0.173 µM)
- MIC (Enterococcus faecalis): 0.03 mg/L (≈ 0.0866 µM)
- LD50 at 192 h [13]: 283 mg/kg
- remaining at 0.75 h, 5 ug/ml [14]: 95.2%
- MIC (Staphylococcus aureus [15]): 0.125 mg/L (≈ 0.361 µM)
- AUC [16]: 0.3676 µg·h/mL
- remaining at 4 h, 5 ug/ml [17]: 95.2%
- IC50 (HGC-27): 0.001 µM
- remaining at 20 min, 1 ug/ml [18]: 94.7%
- MIC (Staphylococcus aureus [19]): 0.5 mg/L
- remaining at 10 min, 1 ug/ml [20]: 96.2%
- Activity (Staphylococcus aureus [21]): Active
- survival at 7.5 mg/kg (Staphylococcus aureus [22]): 50%
- remaining at 0.5 h, 1 ug/ml [23]: 93.8%
- Activity (Staphylococcus aureus [24]): Active
- AUCt [25]: 2.28012 µg·h/mL
- remaining at 24 h, 5 ug/ml [26]: 95.5%
- IC50 (HCT-116): 0.005 µM
- survival at 15 mg/kg (Staphylococcus aureus [27]): 66%
- MIC (Staphylococcus aureus [28]): 0.03 mg/L (≈ 0.0866 µM)
- Activity (Escherichia coli [29]): Active
- IC50 (HepG2): 0.12 µM
- remaining at 10 min, 5 ug/ml [30]: 96.7%
- remaining at 1 h, 1 ug/ml [31]: 92.4%
- MIC (Staphylococcus aureus [32]): 0.016 mg/L (≈ 0.0462 µM)
- remaining at 24 h, 1 ug/ml [33]: 92.3%
- remaining at 1 h, 5 ug/ml [34]: 95.4%
- half-life [35]: 2.82 h
- MIC (Staphylococcus aureus [36]): 0.5 mg/L
- remaining at 4 h, 1 ug/ml [37]: 92.6%
- MIC (Staphylococcus aureus [38]): 0.016 mg/L (≈ 0.0462 µM)
- MIC (Escherichia coli [39]): 0.06 mg/L (≈ 0.173 µM)
- remaining at 20 min, 5 ug/ml [40]: 96%
